In ChEMBL document CHEMBL4507329, “Data for DCP probe BTZO-1” (2021):

What was measured:
[1] = target: Activin receptor type-2B (Homo sapiens) (UniProt Q13705); details: Compound concentration 1000.0 nM
[2] = target: 5'-AMP-activated protein kinase catalytic subunit alpha-2 (Homo sapiens) (UniProt P54646); details: Compound concentration 1000.0 nM
[3] = target: Cytoplasmic tyrosine-protein kinase BMX (Homo sapiens) (UniProt P51813); details: Compound concentration 1000.0 nM
[4] = target: Calcium/calmodulin-dependent protein kinase kinase 1 (Homo sapiens) (UniProt Q8N5S9); details: Compound concentration 1000.0 nM
[5] = target: Cyclin-dependent kinase 4 (Homo sapiens) (UniProt P11802); details: Compound concentration 1000.0 nM
Cyclin-dependent kinase 4 (Homo sapiens), sequence (P11802 whole entry): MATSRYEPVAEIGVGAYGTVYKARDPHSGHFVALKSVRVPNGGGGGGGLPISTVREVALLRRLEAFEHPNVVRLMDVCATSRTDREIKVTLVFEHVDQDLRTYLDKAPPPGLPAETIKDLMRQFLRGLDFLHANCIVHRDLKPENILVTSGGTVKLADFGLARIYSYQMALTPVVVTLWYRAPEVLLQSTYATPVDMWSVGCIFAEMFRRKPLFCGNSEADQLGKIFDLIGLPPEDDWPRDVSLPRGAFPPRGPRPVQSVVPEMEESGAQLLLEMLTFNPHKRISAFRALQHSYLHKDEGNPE

[6] = target: Cyclin-dependent kinase 9 (Homo sapiens) (UniProt P50750); details: Compound concentration 1000.0 nM
[7] = target: Macrophage colony-stimulating factor 1 receptor (Homo sapiens) (UniProt P07333); details: Compound concentration 1000.0 nM
[8] = target: Casein kinase I isoform alpha-like (Homo sapiens) (UniProt Q8N752); details: Compound concentration 1000.0 nM
[9] = target: Casein kinase I isoform epsilon (Homo sapiens) (UniProt P49674); details: Compound concentration 1000.0 nM
[10] = target: Death-associated protein kinase 3 (Homo sapiens, UniProt O43293); details: Compound concentration 1000.0 nM
[11] = target: Serine/threonine-protein kinase DCLK1 (Homo sapiens) (UniProt O15075); details: Compound concentration 1000.0 nM
[12] = target: Dual specificity tyrosine-phosphorylation-regulated kinase 1B (Homo sapiens) (UniProt Q9Y463); details: Compound concentration 1000.0 nM
[13] = target: Ephrin type-B receptor 3 (Homo sapiens) (UniProt P54753); details: Compound concentration 1000.0 nM
[14] = target: Ephrin type-B receptor 4 (Homo sapiens) (UniProt P54760); details: Compound concentration 1000.0 nM
[15] = target: Receptor tyrosine-protein kinase erbB-2 (Homo sapiens) (UniProt P04626); details: Compound concentration 1000.0 nM
[16] = target: Serine/threonine-protein kinase/endoribonuclease IRE1 (Homo sapiens) (UniProt O75460); details: Compound concentration 1000.0 nM
[17] = tested on: Receptor-type tyrosine-protein kinase FLT3 (Homo sapiens), P36888 [D835Y]; details: Compound concentration 1000.0 nM
[18] = target: Tyrosine-protein kinase FRK (Homo sapiens) (UniProt P42685); details: Compound concentration 1000.0 nM
[19] = target: G protein-coupled receptor kinase 3 (Homo sapiens) (UniProt P35626); details: Compound concentration 1000.0 nM
[20] = target: Rhodopsin kinase GRK7 (Homo sapiens) (UniProt Q8WTQ7); details: Compound concentration 1000.0 nM
[21] = target: Inhibitor of nuclear factor kappa-B kinase subunit beta (Homo sapiens) (UniProt O14920); details: Compound concentration 1000.0 nM
[22] = target: Inhibitor of nuclear factor kappa-B kinase subunit epsilon (Homo sapiens) (UniProt Q14164); details: Compound concentration 1000.0 nM
[23] = target: Insulin receptor-related protein (Homo sapiens) (UniProt P14616); details: Compound concentration 1000.0 nM
[24] = target: Interleukin-1 receptor-associated kinase 3 (Homo sapiens) (UniProt Q9Y616); details: Compound concentration 1000.0 nM
[25] = target: Tyrosine-protein kinase JAK1 (Homo sapiens) (UniProt P23458); details: Compound concentration 1000.0 nM
[26] = tested on: Mast/stem cell growth factor receptor Kit (Homo sapiens), P10721 [L576P]; details: Compound concentration 1000.0 nM
[27] = target: LIM domain kinase 2 (Homo sapiens) (UniProt P53671); details: Compound concentration 1000.0 nM
[28] = target: Mitogen-activated protein kinase kinase kinase 3 (Homo sapiens) (UniProt Q99759); details: Compound concentration 1000.0 nM
[29] = target: Serine/threonine-protein kinase MARK1 (Homo sapiens) (UniProt Q9P0L2); details: Compound concentration 1000.0 nM
[30] = target: Maternal embryonic leucine zipper kinase (Homo sapiens) (UniProt Q14680); details: Compound concentration 1000.0 nM
[31] = target: Serine/threonine-protein kinase 3 (Homo sapiens) (UniProt Q13188); details: Compound concentration 1000.0 nM
[32] = target: Myosin light chain kinase 2, skeletal/cardiac muscle (Homo sapiens) (UniProt Q9H1R3); details: Compound concentration 1000.0 nM
[33] = target: Serine/threonine-protein kinase Nek10 (Homo sapiens) (UniProt Q6ZWH5); details: Compound concentration 1000.0 nM
[34] = target: Platelet-derived growth factor receptor beta (Homo sapiens) (UniProt P09619); details: Compound concentration 1000.0 nM
[35] = target: cAMP-dependent protein kinase catalytic subunit beta (Homo sapiens) (UniProt P22694); details: Compound concentration 1000.0 nM
[36] = target: Protein kinase C eta type (Homo sapiens) (UniProt P24723); details: Compound concentration 1000.0 nM
Protein kinase C eta type (Homo sapiens), sequence (P24723 whole entry): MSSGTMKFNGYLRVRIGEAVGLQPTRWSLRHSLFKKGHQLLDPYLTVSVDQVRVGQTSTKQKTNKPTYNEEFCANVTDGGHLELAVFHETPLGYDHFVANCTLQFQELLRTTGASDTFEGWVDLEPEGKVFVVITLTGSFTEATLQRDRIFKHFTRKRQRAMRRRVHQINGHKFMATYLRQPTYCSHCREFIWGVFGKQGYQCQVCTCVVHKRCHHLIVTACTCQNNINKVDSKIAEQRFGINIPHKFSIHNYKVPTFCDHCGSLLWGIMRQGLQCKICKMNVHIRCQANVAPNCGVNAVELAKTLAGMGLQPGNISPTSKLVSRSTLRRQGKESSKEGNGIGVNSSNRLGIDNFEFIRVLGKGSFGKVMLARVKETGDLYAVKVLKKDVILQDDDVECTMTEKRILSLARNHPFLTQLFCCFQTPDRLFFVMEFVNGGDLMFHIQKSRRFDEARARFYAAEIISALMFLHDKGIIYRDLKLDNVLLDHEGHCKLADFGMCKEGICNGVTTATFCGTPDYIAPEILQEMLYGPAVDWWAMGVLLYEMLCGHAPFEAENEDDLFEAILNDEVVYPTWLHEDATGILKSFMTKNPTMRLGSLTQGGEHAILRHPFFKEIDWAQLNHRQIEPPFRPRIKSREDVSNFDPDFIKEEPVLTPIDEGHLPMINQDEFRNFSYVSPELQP

[37] = target: Protein kinase C iota type (Homo sapiens) (UniProt P41743); details: Compound concentration 1000.0 nM
Protein kinase C iota type (Homo sapiens), sequence (P41743 whole entry): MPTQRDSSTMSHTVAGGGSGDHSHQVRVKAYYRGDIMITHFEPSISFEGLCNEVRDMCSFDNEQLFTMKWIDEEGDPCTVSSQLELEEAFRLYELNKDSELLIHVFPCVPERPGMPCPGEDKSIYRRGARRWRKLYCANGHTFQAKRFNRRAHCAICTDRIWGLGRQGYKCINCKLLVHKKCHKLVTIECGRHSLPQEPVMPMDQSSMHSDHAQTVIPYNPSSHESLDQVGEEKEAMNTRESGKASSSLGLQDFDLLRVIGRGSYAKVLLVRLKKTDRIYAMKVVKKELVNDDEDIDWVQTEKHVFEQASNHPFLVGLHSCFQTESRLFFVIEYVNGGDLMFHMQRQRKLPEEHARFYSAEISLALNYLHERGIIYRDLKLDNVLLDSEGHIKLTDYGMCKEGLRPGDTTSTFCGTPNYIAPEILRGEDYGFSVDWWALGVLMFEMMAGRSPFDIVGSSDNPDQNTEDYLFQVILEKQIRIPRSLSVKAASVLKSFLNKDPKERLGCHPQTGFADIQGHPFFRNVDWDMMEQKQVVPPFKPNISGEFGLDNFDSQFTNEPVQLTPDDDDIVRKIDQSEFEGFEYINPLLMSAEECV

[38] = target: Receptor-interacting serine/threonine-protein kinase 4 (Homo sapiens) (UniProt P57078); details: Compound concentration 1000.0 nM
Receptor-interacting serine/threonine-protein kinase 4 (Homo sapiens), sequence (P57078 whole entry): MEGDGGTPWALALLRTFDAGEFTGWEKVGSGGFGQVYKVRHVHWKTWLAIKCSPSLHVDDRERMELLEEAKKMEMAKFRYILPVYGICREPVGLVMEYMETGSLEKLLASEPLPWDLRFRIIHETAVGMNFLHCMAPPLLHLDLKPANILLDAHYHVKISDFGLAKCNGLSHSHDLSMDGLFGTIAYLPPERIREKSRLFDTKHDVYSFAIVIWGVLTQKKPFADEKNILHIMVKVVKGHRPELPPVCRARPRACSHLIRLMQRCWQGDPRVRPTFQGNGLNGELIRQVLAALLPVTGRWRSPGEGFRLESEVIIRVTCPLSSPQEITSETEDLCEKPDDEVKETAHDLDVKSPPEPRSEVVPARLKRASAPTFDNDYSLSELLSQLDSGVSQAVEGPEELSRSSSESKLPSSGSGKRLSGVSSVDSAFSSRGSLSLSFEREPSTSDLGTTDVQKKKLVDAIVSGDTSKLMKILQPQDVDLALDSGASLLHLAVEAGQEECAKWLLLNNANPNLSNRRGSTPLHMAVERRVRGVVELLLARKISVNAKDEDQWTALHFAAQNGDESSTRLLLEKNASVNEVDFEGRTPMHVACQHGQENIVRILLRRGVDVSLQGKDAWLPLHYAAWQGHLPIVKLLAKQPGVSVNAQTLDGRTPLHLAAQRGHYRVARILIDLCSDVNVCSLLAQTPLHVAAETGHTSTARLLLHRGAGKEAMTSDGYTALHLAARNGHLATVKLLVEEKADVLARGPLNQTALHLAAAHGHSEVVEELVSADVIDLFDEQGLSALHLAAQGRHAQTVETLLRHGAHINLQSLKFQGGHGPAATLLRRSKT

[39] = target: Dual serine/threonine and tyrosine protein kinase (Homo sapiens) (UniProt Q6XUX3); details: Compound concentration 1000.0 nM
[40] = target: Serine/threonine-protein kinase Sgk3 (Homo sapiens) (UniProt Q96BR1); details: Compound concentration 1000.0 nM
[41] = target: Serine/threonine-protein kinase 35 (Homo sapiens) (UniProt Q8TDR2); details: Compound concentration 1000.0 nM
[42] = target: TRAF2 and NCK-interacting protein kinase (Homo sapiens) (UniProt Q9UKE5); details: Compound concentration 1000.0 nM
TRAF2 and NCK-interacting protein kinase (Homo sapiens), sequence (Q9UKE5 whole entry, looked up): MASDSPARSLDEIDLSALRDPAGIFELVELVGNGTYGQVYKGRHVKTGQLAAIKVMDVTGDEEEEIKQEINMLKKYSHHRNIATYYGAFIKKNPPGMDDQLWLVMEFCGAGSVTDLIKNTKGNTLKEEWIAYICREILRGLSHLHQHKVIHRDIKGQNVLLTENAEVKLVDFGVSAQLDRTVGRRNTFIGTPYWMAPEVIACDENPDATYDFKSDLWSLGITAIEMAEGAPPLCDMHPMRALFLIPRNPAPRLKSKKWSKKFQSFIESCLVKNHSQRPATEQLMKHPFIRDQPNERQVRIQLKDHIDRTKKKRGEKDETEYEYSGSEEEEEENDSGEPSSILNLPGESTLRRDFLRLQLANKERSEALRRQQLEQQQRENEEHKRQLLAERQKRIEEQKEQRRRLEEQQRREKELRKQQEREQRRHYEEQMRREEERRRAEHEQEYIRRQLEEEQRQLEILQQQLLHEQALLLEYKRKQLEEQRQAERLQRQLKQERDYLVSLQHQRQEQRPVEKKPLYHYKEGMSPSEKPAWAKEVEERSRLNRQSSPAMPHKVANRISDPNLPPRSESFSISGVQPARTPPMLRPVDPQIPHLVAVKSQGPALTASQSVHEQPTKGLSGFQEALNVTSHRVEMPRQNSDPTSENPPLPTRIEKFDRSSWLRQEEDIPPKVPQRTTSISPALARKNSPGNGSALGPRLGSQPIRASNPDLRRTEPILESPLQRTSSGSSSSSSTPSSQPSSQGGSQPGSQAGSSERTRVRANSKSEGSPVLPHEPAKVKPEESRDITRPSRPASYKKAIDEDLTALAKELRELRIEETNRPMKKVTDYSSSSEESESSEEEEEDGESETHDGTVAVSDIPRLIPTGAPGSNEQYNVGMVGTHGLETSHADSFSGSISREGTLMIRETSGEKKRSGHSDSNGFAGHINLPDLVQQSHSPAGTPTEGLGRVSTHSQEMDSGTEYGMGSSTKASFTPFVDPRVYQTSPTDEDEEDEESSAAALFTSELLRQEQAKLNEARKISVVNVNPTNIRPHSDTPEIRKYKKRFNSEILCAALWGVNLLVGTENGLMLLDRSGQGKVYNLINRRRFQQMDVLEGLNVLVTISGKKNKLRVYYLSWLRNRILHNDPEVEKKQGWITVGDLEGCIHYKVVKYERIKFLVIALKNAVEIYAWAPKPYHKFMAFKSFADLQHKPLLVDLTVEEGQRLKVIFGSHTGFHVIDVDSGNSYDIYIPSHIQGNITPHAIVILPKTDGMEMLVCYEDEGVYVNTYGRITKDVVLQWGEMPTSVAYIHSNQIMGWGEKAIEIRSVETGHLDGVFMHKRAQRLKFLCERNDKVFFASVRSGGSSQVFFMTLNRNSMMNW

[43] = target: Serine/threonine-protein kinase WNK2 (Homo sapiens) (UniProt Q9Y3S1); details: Compound concentration 1000.0 nM
[44] = target: Serine/threonine-protein kinase 32A (Homo sapiens) (UniProt Q8WU08); details: Compound concentration 1000.0 nM
[45] = target: Mu-type opioid receptor (Homo sapiens) (UniProt P35372); details: Compound concentration 10.0 uM
Mu-type opioid receptor (Homo sapiens), sequence (P35372 whole entry): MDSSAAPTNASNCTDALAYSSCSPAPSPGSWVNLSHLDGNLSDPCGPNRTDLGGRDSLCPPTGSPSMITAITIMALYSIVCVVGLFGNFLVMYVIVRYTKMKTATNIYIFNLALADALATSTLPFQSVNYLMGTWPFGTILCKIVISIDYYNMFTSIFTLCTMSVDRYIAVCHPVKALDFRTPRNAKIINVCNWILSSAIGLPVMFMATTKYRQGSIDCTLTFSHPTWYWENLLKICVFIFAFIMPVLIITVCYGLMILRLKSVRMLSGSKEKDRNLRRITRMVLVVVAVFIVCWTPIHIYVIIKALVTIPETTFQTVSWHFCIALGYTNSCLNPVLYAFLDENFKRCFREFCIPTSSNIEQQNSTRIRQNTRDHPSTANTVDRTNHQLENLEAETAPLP

5'-AMP-activated protein kinase catalytic subunit alpha-2 (Homo sapiens), sequence (P54646 whole entry, looked up): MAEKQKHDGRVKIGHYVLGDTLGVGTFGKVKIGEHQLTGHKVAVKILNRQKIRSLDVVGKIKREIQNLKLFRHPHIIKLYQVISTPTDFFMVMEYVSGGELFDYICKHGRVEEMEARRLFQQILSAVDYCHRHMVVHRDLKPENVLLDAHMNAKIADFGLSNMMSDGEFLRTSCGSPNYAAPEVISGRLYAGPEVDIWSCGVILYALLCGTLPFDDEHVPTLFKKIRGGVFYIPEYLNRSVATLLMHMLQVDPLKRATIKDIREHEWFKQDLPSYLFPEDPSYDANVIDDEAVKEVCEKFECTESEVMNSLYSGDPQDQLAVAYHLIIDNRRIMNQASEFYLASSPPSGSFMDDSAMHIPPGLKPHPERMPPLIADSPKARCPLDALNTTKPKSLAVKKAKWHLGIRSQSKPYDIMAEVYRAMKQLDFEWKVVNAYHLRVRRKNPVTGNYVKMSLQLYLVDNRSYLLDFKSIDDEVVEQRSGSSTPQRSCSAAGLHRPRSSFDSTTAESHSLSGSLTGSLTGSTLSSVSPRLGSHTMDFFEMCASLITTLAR

O=c1nc(-c2ccccn2)sc2ccccc12 [BTZO-1]
residual activity [1]: 100% | residual activity [2]: 100% | residual activity [3]: 98% | residual activity [4]: 96% | residual activity [5]: 100% | residual activity [6]: 95% | residual activity [7]: 85% | residual activity [8]: 100% | residual activity [9]: 88% | residual activity [10]: 91% | residual activity [11]: 90% | residual activity [12]: 100% | residual activity [13]: 100% | residual activity [14]: 100% | residual activity [15]: 65% | residual activity [16]: 100% | residual activity [17]: 100% | residual activity [18]: 100% | residual activity [19]: 51% | residual activity [20]: 89% | residual activity [21]: 100% | residual activity [22]: 100% | residual activity [23]: 86% | residual activity [24]: 82% | residual activity [25]: 86% | residual activity [26]: 86% | residual activity [27]: 100% | residual activity [28]: 77% | residual activity [29]: 100% | residual activity [30]: 82% | residual activity [31]: 94% | residual activity [32]: 100% | residual activity [33]: 100% | residual activity [34]: 83% | residual activity [35]: 92% | residual activity [36]: 98% | residual activity [37]: 100% | residual activity [38]: 84% | residual activity [39]: 88% | residual activity [40]: 100% | residual activity [41]: 79% | residual activity [42]: 83% | residual activity [43]: 100% | residual activity [44]: 100% | inhibition [45]: 3.52%

O=C1NC(c2ccccn2)Sc2ccccc21 (stereo not given) [BTZO-4]
residual activity [1]: 100% | residual activity [2]: 100% | residual activity [3]: 100% | residual activity [4]: 88% | residual activity [5]: 93% | residual activity [6]: 100% | residual activity [7]: 85% | residual activity [8]: 89% | residual activity [9]: 98% | residual activity [10]: 0% | residual activity [11]: 77% | residual activity [12]: 100% | residual activity [13]: 80% | residual activity [14]: 100% | residual activity [15]: 71% | residual activity [16]: 100% | residual activity [17]: 86% | residual activity [18]: 100% | residual activity [19]: 42% | residual activity [20]: 86% | residual activity [21]: 100% | residual activity [22]: 94% | residual activity [23]: 75% | residual activity [24]: 87% | residual activity [25]: 69% | residual activity [26]: 89% | residual activity [27]: 92% | residual activity [28]: 93% | residual activity [29]: 99% | residual activity [30]: 81% | residual activity [31]: 100% | residual activity [32]: 100% | residual activity [33]: 100% | residual activity [34]: 83% | residual activity [35]: 97% | residual activity [36]: 100% | residual activity [37]: 72% | residual activity [38]: 72% | residual activity [39]: 92% | residual activity [40]: 100% | residual activity [41]: 99% | residual activity [42]: 100% | residual activity [43]: 100% | residual activity [44]: 78% | inhibition [45]: 6.47%
